In US8269022B2, “Polymorphs of enantiopure erdosteine” (Edmond Pharma S.R.L, priority 2007, dated 2012):

Key:
[1] = Dissolution rate test (Intrinsic Dissolution Rate) of 150 mg tablets in 0.1M hydrochloric acid; type: physicochemical; details: FIG. 10
Description: A dissolution rate test was performed in order to define the Intrinsic Dissolution Rate of Erdosteine Form I and Racemic Erdosteine. Six thin 150 mg tablets of S-erdosteine Form I and six 150 mg tablets of racemic Erdosteine were prepared by compression with a 10 ton press and their dissolution profile in 0.1M hydrochloric acid was evaluated. The two profiles are reported in FIG. 10, superimposed on the same graph. As can be clearly seen, the dissolution profile of Form I is very different from that of racemic, non-polymorphic Erdosteine. In fact, after 15 minutes more than 80% Form I is dissolved, while more that 25 minutes are necessary to dissolve 40% racemic Erdosteine. The higher solubility of Form I allows to obtain an improved pharmaceutical form in terms of dosage and bioavailability.

[2] = Flowability test (flow through the funnel); type: physicochemical; details: for Flowing time (mean value): flowability comparison, powder
Description: These advantages will be clearer by considering the following comparison between Form I of S-Erdosteine and the amorphous racemic form. […] Conversely, Form I has a mean flowing time of about 35 seconds, which allows to handle and transfer the powder more easily, and to avoid the use or reduce the amount of glidants in the finished pharmaceutical formulation.

Row | time necessary to dissolve 40% [1] [min] | Flowing time (mean value) [2] | flowability (flow through the funnel) ([2]; result in words) | amount dissolved ([1]; after 15 minutes) | mean flowing time ([2]; powder through the funnel) | Compound
1 | > 25 | ∞ | does not flow through the funnel | – | – | O=C(O)CSCC(=O)NC1CCSC1=O (racemic) [Racemic Erdosteine]
2 | – | 35.6″ | – | more than 80% | about 35 seconds | O=C(O)CSCC(=O)NC1CCSC1=O (stereo not drawn) [Erdosteine Form I]
